Measured values taken from patent publication US12617779B2, “Self degradation-type CDK9 inhibitor prodrug and liposome encapsulating same” (Sumitomo Pharma Co., Ltd., priority 2021, dated 2026).

Test: Evaluation of conversion rate to active form in buffer solution (Experimental Example 1)
Assay type: physicochemical
Settings: for Alvocidib amount produced, after subtracting the 28.2% Alvocidib of the sample (Table 36-2) / Production rate of Alvocidib / Residual rate: 37° C.; for Production rate of Alvocidib / Residual rate: 25 umol/L in buffer solution; for Stability in buffer solution at pH 5: pH 5, 37° C., up to 2 or 3 hours; for Conversion to Alvocidib at pH 7.4: pH 7.4, 37° C., up to 3 hours
In short: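 Conversion to Alvocidib and loss of parent were followed by HPLC over 3 h (samples at 0, 0.5, 1, 2, 3 h). Incubations used 25 umol/L compound at 37 °C across pH 5.0–7.4, in 50 mM citrate below pH 6.0 and 50 mM phosphate from pH 6.0 upward.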

CN1CC[C@H](c2c(OC(=O)N(CCCC(F)(F)F)CC3CCCCN3)cc(O)c3c(=O)cc(-c4ccccc4Cl)oc23)[C@H](O)C1 (stereo partly drawn) [Example 14, 2-(2-chlorophenyl)-5-hydroxy-8-[(3S,4R)-3-hydroxy-1-methylpiperidin-4-yl]-4-oxo-4H-1-benzopyran-7-yl [(piperidin-2-yl)methyl](4,4,4-trifluorobutyl)carbamate]
Alvocidib amount produced, after subtracting the 28.2% Alvocidib of the sample (Table 36-2) (pH5.0, 0 hr): 1.0%
Production rate of Alvocidib (pH5.0, 0 hr): 29.2%
Residual rate (pH5.0, 0 hr): 56.6%
Stability in buffer solution at pH 5: stable
Alvocidib amount produced, after subtracting the 28.2% Alvocidib of the sample (Table 36-2) (pH5.0, 0.5 hr): 1.7%
Production rate of Alvocidib (pH5.0, 0.5 hr): 29.9%
Residual rate (pH5.0, 0.5 hr): 54.6%
Alvocidib amount produced, after subtracting the 28.2% Alvocidib of the sample (Table 36-2) (pH5.0, 1 hr): 3.5%
Production rate of Alvocidib (pH5.0, 1 hr): 31.7%
Residual rate (pH5.0, 1 hr): 53.0%
Alvocidib amount produced, after subtracting the 28.2% Alvocidib of the sample (Table 36-2) (pH5.0, 2 hr): 4.9%
Production rate of Alvocidib (pH5.0, 2 hr): 33.1%
Residual rate (pH5.0, 2 hr): 51.0%
Alvocidib amount produced, after subtracting the 28.2% Alvocidib of the sample (Table 36-2) (pH5.0, 3 hr): 5.2%
Production rate of Alvocidib (pH5.0, 3 hr): 33.4%
Residual rate (pH5.0, 3 hr): 52.7%
Alvocidib amount produced, after subtracting the 28.2% Alvocidib of the sample (Table 36-2) (pH5.5, 0 hr): 0.8%
Production rate of Alvocidib (pH5.5, 0 hr): 29.0%
Residual rate (pH5.5, 0 hr): 57.5%
Alvocidib amount produced, after subtracting the 28.2% Alvocidib of the sample (Table 36-2) (pH5.5, 0.5 hr): 2.7%
Production rate of Alvocidib (pH5.5, 0.5 hr): 30.9%
Residual rate (pH5.5, 0.5 hr): 55.8%
Alvocidib amount produced, after subtracting the 28.2% Alvocidib of the sample (Table 36-2) (pH5.5, 1 hr): 4.5%
Production rate of Alvocidib (pH5.5, 1 hr): 32.7%
Residual rate (pH5.5, 1 hr): 54.3%
Alvocidib amount produced, after subtracting the 28.2% Alvocidib of the sample (Table 36-2) (pH5.5, 2 hr): 7.2%
Production rate of Alvocidib (pH5.5, 2 hr): 35.4%
Residual rate (pH5.5, 2 hr): 48.6%
Alvocidib amount produced, after subtracting the 28.2% Alvocidib of the sample (Table 36-2) (pH5.5, 3 hr): 9.7%
Production rate of Alvocidib (pH5.5, 3 hr): 37.9%
Residual rate (pH5.5, 3 hr): 47.7%
Alvocidib amount produced, after subtracting the 28.2% Alvocidib of the sample (Table 36-2) (pH6.0, 0 hr): 0.9%
Production rate of Alvocidib (pH6.0, 0 hr): 29.1%
Residual rate (pH6.0, 0 hr): 55.8%
Alvocidib amount produced, after subtracting the 28.2% Alvocidib of the sample (Table 36-2) (pH6.0, 0.5 hr): 6.2%
Production rate of Alvocidib (pH6.0, 0.5 hr): 34.4%
Residual rate (pH6.0, 0.5 hr): 49.7%
Alvocidib amount produced, after subtracting the 28.2% Alvocidib of the sample (Table 36-2) (pH6.0, 1 hr): 10.9%
Production rate of Alvocidib (pH6.0, 1 hr): 39.1%
Residual rate (pH6.0, 1 hr): 44.8%
Alvocidib amount produced, after subtracting the 28.2% Alvocidib of the sample (Table 36-2) (pH6.0, 2 hr): 22.0%
Production rate of Alvocidib (pH6.0, 2 hr): 50.2%
Residual rate (pH6.0, 2 hr): 31.8%
Alvocidib amount produced, after subtracting the 28.2% Alvocidib of the sample (Table 36-2) (pH6.0, 3 hr): 27.7%
Production rate of Alvocidib (pH6.0, 3 hr): 55.9%
Residual rate (pH6.0, 3 hr): 24.5%
Alvocidib amount produced, after subtracting the 28.2% Alvocidib of the sample (Table 36-2) (pH6.5, 0 hr): 3.4%
Production rate of Alvocidib (pH6.5, 0 hr): 31.6%
Residual rate (pH6.5, 0 hr): 52.2%
Alvocidib amount produced, after subtracting the 28.2% Alvocidib of the sample (Table 36-2) (pH6.5, 0.5 hr): 17.6%
Production rate of Alvocidib (pH6.5, 0.5 hr): 45.8%
Residual rate (pH6.5, 0.5 hr): 35.2%
Alvocidib amount produced, after subtracting the 28.2% Alvocidib of the sample (Table 36-2) (pH6.5, 1 hr): 28.9%
Production rate of Alvocidib (pH6.5, 1 hr): 57.1%
Residual rate (pH6.5, 1 hr): 22.9%
Alvocidib amount produced, after subtracting the 28.2% Alvocidib of the sample (Table 36-2) (pH6.5, 2 hr): 34.8%
Production rate of Alvocidib (pH6.5, 2 hr): 63.0%
Residual rate (pH6.5, 2 hr): 14.0%
Alvocidib amount produced, after subtracting the 28.2% Alvocidib of the sample (Table 36-2) (pH6.5, 3 hr): 44.4%
Production rate of Alvocidib (pH6.5, 3 hr): 72.6%
Residual rate (pH6.5, 3 hr): 5.1%
Alvocidib amount produced, after subtracting the 28.2% Alvocidib of the sample (Table 36-2) (pH7.0, 0 hr): 2.5%
Production rate of Alvocidib (pH7.0, 0 hr): 30.7%
Residual rate (pH7.0, 0 hr): 53.4%
Alvocidib amount produced, after subtracting the 28.2% Alvocidib of the sample (Table 36-2) (pH7.0, 0.5 hr): 33.8%
Production rate of Alvocidib (pH7.0, 0.5 hr): 62.0%
Residual rate (pH7.0, 0.5 hr): 16.3%
Alvocidib amount produced, after subtracting the 28.2% Alvocidib of the sample (Table 36-2) (pH7.0, 1 hr): 39.8%
Production rate of Alvocidib (pH7.0, 1 hr): 68.0%
Residual rate (pH7.0, 1 hr): 8.4%
Alvocidib amount produced, after subtracting the 28.2% Alvocidib of the sample (Table 36-2) (pH7.0, 2 hr): 47.3%
Production rate of Alvocidib (pH7.0, 2 hr): 75.5%
Residual rate (pH7.0, 2 hr): 1.1%
Alvocidib amount produced, after subtracting the 28.2% Alvocidib of the sample (Table 36-2) (pH7.0, 3 hr): 47.0%
Production rate of Alvocidib (pH7.0, 3 hr): 75.2%
Residual rate (pH7.0, 3 hr): 0.4%
Alvocidib amount produced, after subtracting the 28.2% Alvocidib of the sample (Table 36-2) (pH7.4, 0 hr): 7.7%
Production rate of Alvocidib (pH7.4, 0 hr): 35.9%
Residual rate (pH7.4, 0 hr): 45.8%
Conversion to Alvocidib at pH 7.4: rapidly converted to Alvocidib
Alvocidib amount produced, after subtracting the 28.2% Alvocidib of the sample (Table 36-2) (pH7.4, 0.5 hr): 43.4%
Production rate of Alvocidib (pH7.4, 0.5 hr): 71.6%
Residual rate (pH7.4, 0.5 hr): 4.6%
Alvocidib amount produced, after subtracting the 28.2% Alvocidib of the sample (Table 36-2) (pH7.4, 1 hr): 48.4%
Production rate of Alvocidib (pH7.4, 1 hr): 76.6%
Residual rate (pH7.4, 1 hr): 0.7%
Alvocidib amount produced, after subtracting the 28.2% Alvocidib of the sample (Table 36-2) (pH7.4, 2 hr): 47.4%
Production rate of Alvocidib (pH7.4, 2 hr): 75.6%
Residual rate (pH7.4, 2 hr): 0.2%
Alvocidib amount produced, after subtracting the 28.2% Alvocidib of the sample (Table 36-2) (pH7.4, 3 hr): 47.5%
Production rate of Alvocidib (pH7.4, 3 hr): 75.7%
Residual rate (pH7.4, 3 hr): 0.3%

CN1CC[C@H](c2c(OC(=O)N(Cc3ccccc3)CC3CCCCN3)cc(O)c3c(=O)cc(-c4ccccc4Cl)oc23)[C@H](O)C1 (stereo partly drawn) [Example 15, 2-(2-chlorophenyl)-5-hydroxy-8-[(3S,4R)-3-hydroxy-1-methylpiperidin-4-yl]-4-oxo-4H-1-benzopyran-7-yl benzyl [(piperidin-2-yl)methyl]carbamate]
Production rate of Alvocidib (pH5.0, 0 hr): 1.4%
Residual rate (pH5.0, 0 hr): 95.6%
Stability in buffer solution at pH 5: stable
Production rate of Alvocidib (pH5.0, 0.5 hr): 1.9%
Residual rate (pH5.0, 0.5 hr): 95.2%
Production rate of Alvocidib (pH5.0, 1 hr): 2.6%
Residual rate (pH5.0, 1 hr): 94.7%
Production rate of Alvocidib (pH5.0, 2 hr): 3.8%
Residual rate (pH5.0, 2 hr): 93.5%
Production rate of Alvocidib (pH5.0, 3 hr): 4.6%
Residual rate (pH5.0, 3 hr): 92.5%
Production rate of Alvocidib (pH5.5, 0 hr): 1.4%
Residual rate (pH5.5, 0 hr): 95.6%
Production rate of Alvocidib (pH5.5, 0.5 hr): 2.8%
Residual rate (pH5.5, 0.5 hr): 94.2%
Production rate of Alvocidib (pH5.5, 1 hr): 4.5%
Residual rate (pH5.5, 1 hr): 92.7%
Production rate of Alvocidib (pH5.5, 2 hr): 7.8%
Residual rate (pH5.5, 2 hr): 89.5%
Production rate of Alvocidib (pH5.5, 3 hr): 9.5%
Residual rate (pH5.5, 3 hr): 87.8%
Production rate of Alvocidib (pH6.0, 0 hr): 1.5%
Residual rate (pH6.0, 0 hr): 95.5%
Production rate of Alvocidib (pH6.0, 0.5 hr): 6.2%
Residual rate (pH6.0, 0.5 hr): 91.0%
Production rate of Alvocidib (pH6.0, 1 hr): 12.4%
Residual rate (pH6.0, 1 hr): 84.7%
Production rate of Alvocidib (pH6.0, 2 hr): 22.3%
Residual rate (pH6.0, 2 hr): 62.8%
Production rate of Alvocidib (pH6.0, 3 hr): 25.7%
Residual rate (pH6.0, 3 hr): 56.7%
Production rate of Alvocidib (pH6.5, 0 hr): 1.9%
Residual rate (pH6.5, 0 hr): 94.8%
Production rate of Alvocidib (pH6.5, 0.5 hr): 15.1%
Residual rate (pH6.5, 0.5 hr): 82.2%
Production rate of Alvocidib (pH6.5, 1 hr): 26.1%
Residual rate (pH6.5, 1 hr): 56.3%
Production rate of Alvocidib (pH6.5, 2 hr): 44.6%
Residual rate (pH6.5, 2 hr): 32.9%
Production rate of Alvocidib (pH6.5, 3 hr): 52.4%
Residual rate (pH6.5, 3 hr): 24.3%
Production rate of Alvocidib (pH7.0, 0 hr): 2.8%
Residual rate (pH7.0, 0 hr): 94.1%
Production rate of Alvocidib (pH7.0, 0.5 hr): 40.7%
Residual rate (pH7.0, 0.5 hr): 38.5%
Production rate of Alvocidib (pH7.0, 1 hr): 56.9%
Residual rate (pH7.0, 1 hr): 7.1%
Production rate of Alvocidib (pH7.0, 2 hr): 69.8%
Residual rate (pH7.0, 2 hr): 3.8%
Production rate of Alvocidib (pH7.0, 3 hr): 69.9%
Residual rate (pH7.0, 3 hr): 3.9%
Production rate of Alvocidib (pH7.4, 0 hr): 4.8%
Residual rate (pH7.4, 0 hr): 92.2%
Conversion to Alvocidib at pH 7.4: rapidly converted to Alvocidib
Production rate of Alvocidib (pH7.4, 0.5 hr): 54.7%
Residual rate (pH7.4, 0.5 hr): 21.1%
Production rate of Alvocidib (pH7.4, 1 hr): 67.3%
Residual rate (pH7.4, 1 hr): 8.0%
Production rate of Alvocidib (pH7.4, 2 hr): 75.2%
Residual rate (pH7.4, 2 hr): 3.1%
Production rate of Alvocidib (pH7.4, 3 hr): 77.2%
Residual rate (pH7.4, 3 hr): 2.9%
